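Results reflect a 48-hour exposure of cells in 96-well plates to compound at five concentrations. GI50 = concentration required for 50% inhibition of growth. TGI: total growth inhibition.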
What was measured:
Assay in all cases: inhibition of tumour cell growth, NCI panel, 48 h
K-562 leukemia = system: K-562 leukemia
SK-MEL-2 melanoma = system: SK-MEL-2 melanoma
SNB-75 CNS = system: SNB-75 CNS
BT-549 breast = system: BT-549 breast
OVCAR-5 ovarian = system: OVCAR-5 ovarian
MDA-MB-435 = system: MDA-MB-435
SF-539 CNS = system: SF-539 CNS
OVCAR-3 ovarian = system: OVCAR-3 ovarian
KM12 colon = system: KM12 colon
UACC-257 melanoma = system: UACC-257 melanoma
MALME-3M melanoma = system: MALME-3M melanoma
NCI-H226 lung = system: NCI-H226 lung
SNB-19 CNS = system: SNB-19 CNS
MOLT-4 leukemia = system: MOLT-4 leukemia
SK-MEL-5 melanoma = system: SK-MEL-5 melanoma
EKVX NSCLC = system: EKVX NSCLC
HCT-15 colon = system: HCT-15 colon
NCI-H23 lung = system: NCI-H23 lung
NCI-H522 lung = system: NCI-H522 lung
T-47D breast = system: T-47D breast
OVCAR-8 ovarian = system: OVCAR-8 ovarian
SN12C renal = system: SN12C renal
UACC-62 melanoma = system: UACC-62 melanoma
SR leukemia = system: SR leukemia
IGROV1 ovarian = system: IGROV1 ovarian
SF-268 CNS = system: SF-268 CNS
HCC-2998 colon = system: HCC-2998 colon
NCI-H460 lung = system: NCI-H460 lung
LOX IMVI melanoma = system: LOX IMVI melanoma
OVCAR-4 ovarian = system: OVCAR-4 ovarian
DU-145 prostate = system: DU-145 prostate
CCRF-CEM leukemia = system: CCRF-CEM leukemia
COLO 205 colon = system: COLO 205 colon
RPMI-8226 leukemia = system: RPMI-8226 leukemia
HL-60(TB) leukemia = system: HL-60(TB) leukemia
HOP-92 NSCLC = system: HOP-92 NSCLC
SK-MEL-28 melanoma = system: SK-MEL-28 melanoma
ACHN renal = system: ACHN renal
A498 renal = system: A498 renal
SK-OV-3 ovarian = system: SK-OV-3 ovarian
UO-31 renal = system: UO-31 renal
MDA-MB-231 breast = system: MDA-MB-231 breast
HOP-62 NSCLC = system: HOP-62 NSCLC
A549 NSCLC = system: A549 NSCLC
SF-295 CNS = system: SF-295 CNS
SW-620 colon = system: SW-620 colon
TK-10 renal = system: TK-10 renal
NCI/ADR-RES ovarian = system: NCI/ADR-RES ovarian
CAKI-1 renal = system: CAKI-1 renal
U251 CNS = system: U251 CNS
PC-3 prostate = system: PC-3 prostate
786-0 renal = system: 786-0 renal
HCT-116 colon = system: HCT-116 colon
MCF7 breast = system: MCF7 breast
HS 578T breast = system: HS 578T breast
M14 melanoma = system: M14 melanoma
HT29 colon = system: HT29 colon
RXF 393 renal = system: RXF 393 renal

## CCN1C(=S)N(CC)C2C1NC(=S)N2/N=C/C=C/c1ccccc1 (stereo unspecified)
K-562 leukemia
  GI50: 0.382 µM
  TGI: 14.1 µM
SK-MEL-2 melanoma
  GI50: 1.62 µM
  TGI: 13.7 µM
SNB-75 CNS
  GI50: 1.09 µM
  TGI: 5.65 µM
BT-549 breast
  GI50: 5.44 µM
  TGI: 21.7 µM
OVCAR-5 ovarian
  GI50: 3.92 µM
  TGI: 16.9 µM
MDA-MB-435
  GI50: 0.272 µM
  TGI: 0.856 µM
SF-539 CNS
  GI50: 1.67 µM
  TGI: 5.4 µM
OVCAR-3 ovarian
  GI50: 0.52 µM
  TGI: 4.97 µM
KM12 colon
  GI50: 1.21 µM
  TGI: 14.7 µM
UACC-257 melanoma
  GI50: 3.68 µM
  TGI: 19.5 µM
MALME-3M melanoma
  GI50: 2.09 µM
  TGI: 17.8 µM
NCI-H226 lung
  GI50: 6.73 µM
  TGI: 24.4 µM
SNB-19 CNS
  GI50: 2.8 µM
  TGI: 20.2 µM
MOLT-4 leukemia
  GI50: 1.02 µM
  TGI: 25.4 µM
SK-MEL-5 melanoma
  GI50: 1.19 µM
  TGI: 10.7 µM
EKVX NSCLC
  GI50: 4.19 µM
  TGI: 34.7 µM
HCT-15 colon
  GI50: 0.77 µM
  TGI: 14.3 µM
NCI-H23 lung
  GI50: 4.49 µM
  TGI: 22 µM
NCI-H522 lung
  GI50: 0.739 µM
  TGI: 3.7 µM
T-47D breast
  GI50: 3.55 µM
  TGI: 18.2 µM
OVCAR-8 ovarian
  GI50: 4.47 µM
  TGI: 23.5 µM
SN12C renal
  GI50: 3.49 µM
  TGI: 16.8 µM
UACC-62 melanoma
  GI50: 1.37 µM
  TGI: 14.9 µM
SR leukemia
  GI50: 0.347 µM
  TGI: 5.92 µM
IGROV1 ovarian
  GI50: 2.15 µM
  TGI: 16.3 µM
SF-268 CNS
  GI50: 5.51 µM
  TGI: 27.2 µM
HCC-2998 colon
  GI50: 2.84 µM
  TGI: 16.9 µM
NCI-H460 lung
  GI50: 1.79 µM
  TGI: 12.7 µM
LOX IMVI melanoma
  GI50: 2.81 µM
  TGI: 17 µM
OVCAR-4 ovarian
  GI50: 5.4 µM
  TGI: 19.6 µM
DU-145 prostate
  GI50: 2.42 µM
  TGI: 12.2 µM
CCRF-CEM leukemia
  GI50: 1.26 µM
  TGI: 12 µM
COLO 205 colon
  GI50: 1.11 µM
  TGI: 4.4 µM
RPMI-8226 leukemia
  GI50: 1.97 µM
  TGI: 6.64 µM
HL-60(TB) leukemia
  GI50: 0.387 µM
  TGI: 1.79 µM
HOP-92 NSCLC
  GI50: 4 µM
  TGI: 20.9 µM
SK-MEL-28 melanoma
  GI50: 4.81 µM
  TGI: 21 µM
ACHN renal
  GI50: 4.87 µM
  TGI: 18.9 µM
A498 renal
  GI50: 0.641 µM
  TGI: 4.67 µM
SK-OV-3 ovarian
  GI50: 2.4 µM
  TGI: 14.7 µM
UO-31 renal
  GI50: 3.55 µM
  TGI: 18.3 µM
MDA-MB-231 breast
  GI50: 2.75 µM
  TGI: 14.6 µM
HOP-62 NSCLC
  GI50: 2.26 µM
  TGI: 15.7 µM
A549 NSCLC
  GI50: 2.52 µM
  TGI: 17.8 µM
SF-295 CNS
  GI50: 1.04 µM
  TGI: 11.8 µM
SW-620 colon
  GI50: 0.803 µM
  TGI: 17.8 µM
TK-10 renal
  GI50: 7.65 µM
  TGI: 23.1 µM
NCI/ADR-RES ovarian
  GI50: 1.54 µM
  TGI: 12.6 µM
CAKI-1 renal
  GI50: 0.776 µM
  TGI: 18.6 µM
U251 CNS
  GI50: 2.31 µM
  TGI: 13 µM
PC-3 prostate
  GI50: 1.52 µM
  TGI: 16 µM
786-0 renal
  GI50: 5.19 µM
  TGI: 19.2 µM
HCT-116 colon
  GI50: 1.3 µM
  TGI: 12.4 µM
MCF7 breast
  GI50: 0.513 µM
  TGI: 16.4 µM
HS 578T breast
  GI50: 2.11 µM
  TGI: 8.96 µM
M14 melanoma
  GI50: 0.879 µM
  TGI: 12.9 µM
HT29 colon
  GI50: 0.511 µM
  TGI: 12.1 µM
RXF 393 renal
  GI50: 1.57 µM
  TGI: 6.58 µM

— PubChem BioAssay (NCI)
